Laboratory results from patent US4015974A, “Amido phosphorothiolates” (priority 1972, dated 1977).

What was measured:
Format in all cases: in vivo
[1] = tested on: barnyard grass (Echinochloa crus-galli); assay: Pre-emergence application, herbicidal effect on barnyard grass (Table 1); set-up: key: 0: not damaged; 5: completely killed; conditions: 20 days after application, score 0-5
How it was run: (§1)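 Scores run from 0 (undamaged) to 5 (fully killed), read 20 days post-treatment. Compounds were applied as water-diluted wettable powders to soil over freshly covered seeds in ~10 cm pots, with plants kept in a greenhouse.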

[2] = tested on: large crabgrass (Digitaria sanguinalis); assay: Pre-emergence application, herbicidal effect on large crabgrass (Table 1); set-up: key: 0: not damaged; 5: completely killed; conditions: 20 days after application, score 0-5
How it was run: as §1

radish = assay: Pre-emergence application, herbicidal effect on radish (Table 1); set-up: key: 0: not damaged; 5: completely killed; conditions: 20 days after application, score 0-5
How it was run: as §1

[3] = tested on: redroot pigweed (Amaranthus retroflexus); assay: Pre-emergence application, herbicidal effect on redroot pigweed (Table 1); set-up: key: 0: not damaged; 5: completely killed; conditions: 20 days after application, score 0-5
How it was run: as §1

[4] = tested on: common purslane (Portulaca oleracea); assay: Pre-emergence application, herbicidal effect on common purslane (Table 1); set-up: key: 0: not damaged; 5: completely killed; conditions: 20 days after application, score 0-5
How it was run: as §1

[5] = tested on: common lambsquarter (Chenopodium album); assay: Pre-emergence application, herbicidal effect on common lambsquarter (Table 1); set-up: key: 0: not damaged; 5: completely killed; conditions: 20 days after application, score 0-5
How it was run: as §1

rice = assay: Water application, phytotoxicity on rice (Table 2); set-up: key: 0: no effect; 1: very slightly affected; 2: slightly affected; 3: moderately affected; 4: considerably affected; 5: completely killed; conditions: 25 days, score 0-5
How it was run: (§2)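 Scores (0–5) taken 25 days post-treatment. Wettable-powder formulations were applied into standing water over paddy soil holding 3-leaf-stage transplanted rice, sown Echinochloa and naturally emerging monochoria, false pimpernel and toothcup.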

[6] = tested on: barnyard grass (Echinochloa crus-galli); assay: Water application, herbicidal effect on barnyard grass (Table 2); set-up: key: 0: not damaged; 5: completely killed; conditions: 25 days, score 0-5
How it was run: as §2

[7] = tested on: broad-leaved weeds, e.g., monochoria, false pimpernel and toothcup; assay: Water application, herbicidal effect on broad-leaved weeds (Table 2); set-up: key: 0: not damaged; 5: completely killed; conditions: 25 days, score 0-5
How it was run: as §2

SMILES | Herbicidal effect, barnyard grass ([1]; 10 g./a.) | Herbicidal effect, barnyard grass ([1]; 20 g./a.) | Herbicidal effect, barnyard grass ([1]; 40 g./a.) | Herbicidal effect, large crabgrass ([2]; 10 g./a.) | Herbicidal effect, large crabgrass ([2]; 20 g./a.) | Herbicidal effect, large crabgrass ([2]; 40 g./a.) | Herbicidal effect, radish (radish; 10 g./a.) | Herbicidal effect, radish (radish; 20 g./a.) | Herbicidal effect, radish (radish; 40 g./a.) | Herbicidal effect, redroot pigweed ([3]; 10 g./a.) | Herbicidal effect, redroot pigweed ([3]; 20 g./a.) | Herbicidal effect, redroot pigweed ([3]; 40 g./a.) | Herbicidal effect, common purslane ([4]; 10 g./a.) | Herbicidal effect, common purslane ([4]; 20 g./a.) | Herbicidal effect, common purslane ([4]; 40 g./a.) | Herbicidal effect, common lambsquarter ([5]; 10 g./a.) | Herbicidal effect, common lambsquarter ([5]; 20 g./a.) | Herbicidal effect, common lambsquarter ([5]; 40 g./a.) | Phytotoxicity on rice (rice; 10 g/a) | Phytotoxicity on rice (rice; 20 g/a) | also measured
CCOP(=O)(SCCC(C)C)SCC(=O)N1CCCC(C)C1 (stereo not drawn) [Compound 73] | 5 | 5 | 5 | 5 | 5 | 5 | 0 | 0 | 0 | 4 | 4 | 5 | 4 | 4 | 5 | 4 | 4 | 5 | 0 | 0 | Phytotoxicity on rice (rice; 40 g/a): 0; Herbicidal effects, barnyard grass ([6]; 10 g/a): 5; Herbicidal effects, barnyard grass ([6]; 20 g/a): 5; Herbicidal effects, barnyard grass ([6]; 40 g/a): 5; Herbicidal effects, broad-leaved weeds ([7]; 10 g/a): 5; Herbicidal effects, broad-leaved weeds ([7]; 20 g/a): 5; Herbicidal effects, broad-leaved weeds ([7]; 40 g/a): 5
CCCOP(=O)(SCC(=O)N1CCCCC1CC)SC(C)CC (stereo not drawn) [Compound 87] | 5 | 5 | 5 | 5 | 5 | 5 | 0 | 0 | 0 | 3 | 4 | 5 | 3 | 4 | 5 | 3 | 3 | 5 | 0 | 0 | Phytotoxicity on rice (rice; 40 g/a): 0; Herbicidal effects, barnyard grass ([6]; 10 g/a): 5; Herbicidal effects, barnyard grass ([6]; 20 g/a): 5; Herbicidal effects, barnyard grass ([6]; 40 g/a): 5; Herbicidal effects, broad-leaved weeds ([7]; 10 g/a): 5; Herbicidal effects, broad-leaved weeds ([7]; 20 g/a): 5; Herbicidal effects, broad-leaved weeds ([7]; 40 g/a): 5
CCOP(=O)(SCC)SCC(=O)N1CCCCC1CC (stereo not drawn) [Compound 75] | 5 | 5 | 5 | 5 | 5 | 5 | 0 | 1 | 2 | 5 | 5 | 5 | 5 | 5 | 5 | 5 | 5 | 5 | 0 | 0 | Phytotoxicity on rice (rice; 40 g/a): 1; Herbicidal effects, barnyard grass ([6]; 10 g/a): 5; Herbicidal effects, barnyard grass ([6]; 20 g/a): 5; Herbicidal effects, barnyard grass ([6]; 40 g/a): 5; Herbicidal effects, broad-leaved weeds ([7]; 10 g/a): 5; Herbicidal effects, broad-leaved weeds ([7]; 20 g/a): 5; Herbicidal effects, broad-leaved weeds ([7]; 40 g/a): 5
CCCOP(=O)(SCCC)SCC(=O)N1CCCCC1CC (stereo not drawn) [Compound 85] | 5 | 5 | 5 | 5 | 5 | 5 | 0 | 0 | 0 | 5 | 5 | 5 | 5 | 5 | 5 | 5 | 5 | 5 | 0 | 0 | Phytotoxicity on rice (rice; 40 g/a): 0; Herbicidal effects, barnyard grass ([6]; 10 g/a): 5; Herbicidal effects, barnyard grass ([6]; 20 g/a): 5; Herbicidal effects, barnyard grass ([6]; 40 g/a): 5; Herbicidal effects, broad-leaved weeds ([7]; 10 g/a): 5; Herbicidal effects, broad-leaved weeds ([7]; 20 g/a): 5; Herbicidal effects, broad-leaved weeds ([7]; 40 g/a): 5
CCOP(=O)(SCC(=O)N1CCC(C)CC1)SC(C)CC (stereo not drawn) [Compound 27] | 4 | 5 | 5 | 5 | 5 | 5 | 0 | 0 | 0 | 3 | 4 | 5 | 4 | 4 | 4 | 4 | 4 | 5 | 0 | 0 | Phytotoxicity on rice (rice; 40 g/a): 0; Herbicidal effects, barnyard grass ([6]; 10 g/a): 5; Herbicidal effects, barnyard grass ([6]; 20 g/a): 5; Herbicidal effects, barnyard grass ([6]; 40 g/a): 5; Herbicidal effects, broad-leaved weeds ([7]; 10 g/a): 5; Herbicidal effects, broad-leaved weeds ([7]; 20 g/a): 5; Herbicidal effects, broad-leaved weeds ([7]; 40 g/a): 5
CCOP(=O)(SCC(=O)N1CCCCC1CC)SCC(C)C (stereo not drawn) [Compound 77] | 5 | 5 | 5 | 5 | 5 | 5 | 0 | 0 | 0 | 5 | 5 | 5 | 5 | 5 | 5 | 5 | 5 | 5 | 0 | 0 | Phytotoxicity on rice (rice; 40 g/a): 1; Herbicidal effects, barnyard grass ([6]; 10 g/a): 5; Herbicidal effects, barnyard grass ([6]; 20 g/a): 5; Herbicidal effects, barnyard grass ([6]; 40 g/a): 5; Herbicidal effects, broad-leaved weeds ([7]; 10 g/a): 5; Herbicidal effects, broad-leaved weeds ([7]; 20 g/a): 5; Herbicidal effects, broad-leaved weeds ([7]; 40 g/a): 5
